According to publication PMC9927415, “Tyrosine Kinase Inhibitors Display Potent Activity against Cryptosporidium parvum” (Microbiology Spectrum, 2022):
Where two headings read alike, the source gives them in different places.

Legend:
Test in all cases: KINOMEscan competitive binding
[1] = molecular target: T1, AAK1 (Homo sapiens, UniProt Q2M2I8)
T1 construct: purchased DiscoverX (KINOMEscan)
Source text: (§1) The kinases were expressed as fusions to T7 bacteriophage. This is a sensitive, competitive binding assay where test compounds were used to displace immobilized ATP-site binding probe ligands from kinases of interest. The amount of kinase that remained bound to the immobilized probe ligands on the solid support was quantified. Percentage inhibition data were was plotted on kinome trees using the web-based tool KinMap (http://www.kinhub.org/kinmap) ([60]).

[2] = molecular target: T2, CLK2 (Homo sapiens, UniProt P49760)
T2 construct: purchased DiscoverX (KINOMEscan)
T2 sequence (P49760 whole entry): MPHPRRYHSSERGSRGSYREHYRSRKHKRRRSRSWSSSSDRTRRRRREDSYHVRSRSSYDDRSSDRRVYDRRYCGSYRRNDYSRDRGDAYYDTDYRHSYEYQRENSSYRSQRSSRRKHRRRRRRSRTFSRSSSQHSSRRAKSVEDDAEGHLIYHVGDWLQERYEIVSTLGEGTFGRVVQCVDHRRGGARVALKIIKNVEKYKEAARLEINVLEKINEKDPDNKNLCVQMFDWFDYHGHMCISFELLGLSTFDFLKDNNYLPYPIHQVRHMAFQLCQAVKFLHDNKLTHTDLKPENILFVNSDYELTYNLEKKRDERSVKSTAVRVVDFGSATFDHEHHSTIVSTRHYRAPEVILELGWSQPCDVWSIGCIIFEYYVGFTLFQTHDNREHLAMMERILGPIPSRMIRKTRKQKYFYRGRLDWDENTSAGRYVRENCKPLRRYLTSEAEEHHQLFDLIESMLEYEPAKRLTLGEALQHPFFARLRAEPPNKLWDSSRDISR
Source text: as §1

[3] = molecular target: T3, CSNK1E (Homo sapiens, UniProt P49674)
T3 construct: purchased DiscoverX (KINOMEscan)
T3 sequence (P49674 whole entry): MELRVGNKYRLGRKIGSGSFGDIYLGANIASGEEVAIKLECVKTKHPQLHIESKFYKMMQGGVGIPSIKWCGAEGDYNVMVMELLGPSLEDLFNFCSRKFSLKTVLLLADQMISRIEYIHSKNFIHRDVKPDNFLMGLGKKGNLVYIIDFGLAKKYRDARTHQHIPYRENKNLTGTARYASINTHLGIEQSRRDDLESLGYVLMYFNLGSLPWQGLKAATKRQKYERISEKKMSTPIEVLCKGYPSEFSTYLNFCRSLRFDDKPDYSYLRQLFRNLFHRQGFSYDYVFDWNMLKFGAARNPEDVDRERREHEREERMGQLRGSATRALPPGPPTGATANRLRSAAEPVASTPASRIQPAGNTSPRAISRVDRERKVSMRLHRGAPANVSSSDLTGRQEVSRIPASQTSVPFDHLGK
Source text: as §1

[4] = molecular target: T4, EGFR (Homo sapiens, UniProt P00533)
T4 construct: purchased DiscoverX (KINOMEscan)
T4 sequence (P00533 25-1210): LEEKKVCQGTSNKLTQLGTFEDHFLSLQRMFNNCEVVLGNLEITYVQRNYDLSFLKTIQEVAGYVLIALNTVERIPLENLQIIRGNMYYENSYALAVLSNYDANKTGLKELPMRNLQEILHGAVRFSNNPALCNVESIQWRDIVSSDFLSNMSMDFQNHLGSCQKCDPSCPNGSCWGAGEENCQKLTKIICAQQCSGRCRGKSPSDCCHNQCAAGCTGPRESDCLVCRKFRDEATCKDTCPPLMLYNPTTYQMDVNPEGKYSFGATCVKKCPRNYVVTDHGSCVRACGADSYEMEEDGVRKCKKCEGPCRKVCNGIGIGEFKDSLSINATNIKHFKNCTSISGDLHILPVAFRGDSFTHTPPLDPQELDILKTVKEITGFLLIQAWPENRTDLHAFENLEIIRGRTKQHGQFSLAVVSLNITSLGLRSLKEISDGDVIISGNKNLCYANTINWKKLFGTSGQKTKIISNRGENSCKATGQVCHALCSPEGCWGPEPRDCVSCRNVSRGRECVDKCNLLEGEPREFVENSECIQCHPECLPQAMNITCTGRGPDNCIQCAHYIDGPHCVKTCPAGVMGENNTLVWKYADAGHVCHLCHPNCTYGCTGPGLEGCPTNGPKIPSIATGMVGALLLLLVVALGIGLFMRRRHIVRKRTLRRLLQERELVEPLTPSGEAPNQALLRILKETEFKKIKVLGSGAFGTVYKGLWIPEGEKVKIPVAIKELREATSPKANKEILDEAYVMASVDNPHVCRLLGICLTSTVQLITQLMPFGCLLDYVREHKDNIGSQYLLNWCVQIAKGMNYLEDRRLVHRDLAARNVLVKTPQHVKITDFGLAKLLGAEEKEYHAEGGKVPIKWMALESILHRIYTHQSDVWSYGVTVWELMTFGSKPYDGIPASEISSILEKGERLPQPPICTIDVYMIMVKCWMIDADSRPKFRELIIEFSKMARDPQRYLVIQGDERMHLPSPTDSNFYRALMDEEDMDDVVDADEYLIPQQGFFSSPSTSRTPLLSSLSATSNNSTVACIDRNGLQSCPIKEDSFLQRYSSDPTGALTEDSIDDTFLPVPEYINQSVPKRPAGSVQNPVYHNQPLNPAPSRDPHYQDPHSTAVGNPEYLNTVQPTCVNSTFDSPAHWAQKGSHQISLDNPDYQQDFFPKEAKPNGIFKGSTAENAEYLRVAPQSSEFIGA
Source text: as §1

[5] = molecular target: T5, FLT3 (Homo sapiens, UniProt P36888)
T5 construct: purchased DiscoverX (KINOMEscan)
T5 sequence (P36888 27-993): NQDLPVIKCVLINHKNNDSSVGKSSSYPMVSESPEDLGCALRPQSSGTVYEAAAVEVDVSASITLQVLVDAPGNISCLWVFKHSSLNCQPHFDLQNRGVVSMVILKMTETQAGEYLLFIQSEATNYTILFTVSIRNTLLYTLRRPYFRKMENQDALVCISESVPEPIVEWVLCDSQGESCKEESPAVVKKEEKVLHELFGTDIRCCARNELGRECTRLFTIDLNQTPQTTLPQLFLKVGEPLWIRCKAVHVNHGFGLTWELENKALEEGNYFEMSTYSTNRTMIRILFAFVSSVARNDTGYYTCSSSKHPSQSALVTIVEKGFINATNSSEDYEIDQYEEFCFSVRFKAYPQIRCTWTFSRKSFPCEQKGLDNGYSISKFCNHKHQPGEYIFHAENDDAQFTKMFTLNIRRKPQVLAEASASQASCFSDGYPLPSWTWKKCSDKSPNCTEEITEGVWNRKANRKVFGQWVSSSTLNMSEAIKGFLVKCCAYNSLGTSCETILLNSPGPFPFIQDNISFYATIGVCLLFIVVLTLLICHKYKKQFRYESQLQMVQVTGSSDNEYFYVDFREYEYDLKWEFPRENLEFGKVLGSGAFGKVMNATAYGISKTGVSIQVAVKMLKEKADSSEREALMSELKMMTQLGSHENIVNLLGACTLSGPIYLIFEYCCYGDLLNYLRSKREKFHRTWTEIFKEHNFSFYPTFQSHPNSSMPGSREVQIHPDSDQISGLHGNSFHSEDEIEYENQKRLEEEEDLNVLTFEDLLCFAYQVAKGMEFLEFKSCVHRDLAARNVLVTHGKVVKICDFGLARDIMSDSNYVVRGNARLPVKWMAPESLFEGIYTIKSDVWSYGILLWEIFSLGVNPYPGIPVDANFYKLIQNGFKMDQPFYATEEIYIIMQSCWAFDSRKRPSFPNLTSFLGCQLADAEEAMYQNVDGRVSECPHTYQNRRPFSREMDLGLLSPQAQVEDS
Source text: as §1

[6] = molecular target: T6, LKB1 (Homo sapiens, UniProt Q15831)
T6 construct: purchased DiscoverX (KINOMEscan)
T6 sequence (Q15831 1-433): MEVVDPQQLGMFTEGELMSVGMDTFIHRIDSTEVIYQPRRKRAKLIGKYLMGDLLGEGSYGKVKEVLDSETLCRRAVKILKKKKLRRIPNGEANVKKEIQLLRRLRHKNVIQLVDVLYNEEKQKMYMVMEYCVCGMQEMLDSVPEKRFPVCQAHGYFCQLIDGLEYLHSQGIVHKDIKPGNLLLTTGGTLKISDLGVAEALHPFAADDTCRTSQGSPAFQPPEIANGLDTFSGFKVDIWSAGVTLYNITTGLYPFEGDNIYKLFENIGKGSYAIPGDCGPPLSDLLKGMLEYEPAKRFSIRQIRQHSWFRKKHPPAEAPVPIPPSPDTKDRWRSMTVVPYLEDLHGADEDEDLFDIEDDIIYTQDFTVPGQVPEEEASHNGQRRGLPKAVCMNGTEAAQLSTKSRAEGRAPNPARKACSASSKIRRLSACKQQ
Source text: as §1

[7] = molecular target: T7, LYN (Homo sapiens, UniProt P07948)
T7 construct: purchased DiscoverX (KINOMEscan)
T7 sequence (P07948 whole entry): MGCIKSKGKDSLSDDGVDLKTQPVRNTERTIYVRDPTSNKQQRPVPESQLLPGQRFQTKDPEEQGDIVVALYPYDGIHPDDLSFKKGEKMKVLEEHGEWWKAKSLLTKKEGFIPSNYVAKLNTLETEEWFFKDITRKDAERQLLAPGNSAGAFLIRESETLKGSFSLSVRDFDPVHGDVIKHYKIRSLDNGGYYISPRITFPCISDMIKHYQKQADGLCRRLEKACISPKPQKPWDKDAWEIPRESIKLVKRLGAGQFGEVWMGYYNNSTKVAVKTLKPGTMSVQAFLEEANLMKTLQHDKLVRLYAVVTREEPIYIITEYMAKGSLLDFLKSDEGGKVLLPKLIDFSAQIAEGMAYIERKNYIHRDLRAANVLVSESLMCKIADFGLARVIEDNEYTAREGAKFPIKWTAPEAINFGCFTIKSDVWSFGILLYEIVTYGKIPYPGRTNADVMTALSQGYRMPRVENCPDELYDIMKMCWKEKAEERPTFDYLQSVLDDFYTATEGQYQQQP
Source text: as §1

[8] = molecular target: T8, PDGFRα (Homo sapiens, UniProt P16234)
T8 construct: purchased DiscoverX (KINOMEscan)
T8 sequence (P16234 24-1089): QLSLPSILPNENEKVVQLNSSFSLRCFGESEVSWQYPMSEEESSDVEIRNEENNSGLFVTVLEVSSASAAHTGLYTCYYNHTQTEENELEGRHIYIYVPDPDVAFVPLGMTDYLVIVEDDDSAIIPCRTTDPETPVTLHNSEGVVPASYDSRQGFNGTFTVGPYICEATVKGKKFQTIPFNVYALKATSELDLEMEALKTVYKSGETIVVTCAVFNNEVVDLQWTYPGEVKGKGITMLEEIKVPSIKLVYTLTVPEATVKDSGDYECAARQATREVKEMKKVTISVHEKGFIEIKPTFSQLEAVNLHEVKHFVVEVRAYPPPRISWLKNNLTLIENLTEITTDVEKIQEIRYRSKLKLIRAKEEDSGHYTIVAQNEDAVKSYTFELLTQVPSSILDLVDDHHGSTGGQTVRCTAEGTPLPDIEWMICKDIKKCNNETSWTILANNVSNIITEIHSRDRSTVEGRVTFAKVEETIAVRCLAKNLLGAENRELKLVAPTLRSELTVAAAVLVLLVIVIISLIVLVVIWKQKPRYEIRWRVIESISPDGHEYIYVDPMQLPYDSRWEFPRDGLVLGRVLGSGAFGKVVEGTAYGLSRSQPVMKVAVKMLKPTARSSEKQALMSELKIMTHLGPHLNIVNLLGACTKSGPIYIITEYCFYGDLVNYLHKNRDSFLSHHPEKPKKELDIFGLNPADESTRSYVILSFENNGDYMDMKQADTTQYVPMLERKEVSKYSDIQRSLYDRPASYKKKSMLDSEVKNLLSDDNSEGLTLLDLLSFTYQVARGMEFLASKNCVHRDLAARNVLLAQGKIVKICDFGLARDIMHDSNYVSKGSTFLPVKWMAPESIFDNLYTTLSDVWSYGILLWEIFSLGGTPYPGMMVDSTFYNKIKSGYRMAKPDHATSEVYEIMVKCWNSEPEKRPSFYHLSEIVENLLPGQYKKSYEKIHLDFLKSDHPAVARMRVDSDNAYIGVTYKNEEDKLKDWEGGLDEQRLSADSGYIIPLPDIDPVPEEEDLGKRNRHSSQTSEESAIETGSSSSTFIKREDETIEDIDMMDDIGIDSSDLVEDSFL
Source text: as §1

[9] = molecular target: T9, PDGFRβ (Homo sapiens, UniProt P09619)
T9 construct: purchased DiscoverX (KINOMEscan)
T9 sequence (P09619 33-1106): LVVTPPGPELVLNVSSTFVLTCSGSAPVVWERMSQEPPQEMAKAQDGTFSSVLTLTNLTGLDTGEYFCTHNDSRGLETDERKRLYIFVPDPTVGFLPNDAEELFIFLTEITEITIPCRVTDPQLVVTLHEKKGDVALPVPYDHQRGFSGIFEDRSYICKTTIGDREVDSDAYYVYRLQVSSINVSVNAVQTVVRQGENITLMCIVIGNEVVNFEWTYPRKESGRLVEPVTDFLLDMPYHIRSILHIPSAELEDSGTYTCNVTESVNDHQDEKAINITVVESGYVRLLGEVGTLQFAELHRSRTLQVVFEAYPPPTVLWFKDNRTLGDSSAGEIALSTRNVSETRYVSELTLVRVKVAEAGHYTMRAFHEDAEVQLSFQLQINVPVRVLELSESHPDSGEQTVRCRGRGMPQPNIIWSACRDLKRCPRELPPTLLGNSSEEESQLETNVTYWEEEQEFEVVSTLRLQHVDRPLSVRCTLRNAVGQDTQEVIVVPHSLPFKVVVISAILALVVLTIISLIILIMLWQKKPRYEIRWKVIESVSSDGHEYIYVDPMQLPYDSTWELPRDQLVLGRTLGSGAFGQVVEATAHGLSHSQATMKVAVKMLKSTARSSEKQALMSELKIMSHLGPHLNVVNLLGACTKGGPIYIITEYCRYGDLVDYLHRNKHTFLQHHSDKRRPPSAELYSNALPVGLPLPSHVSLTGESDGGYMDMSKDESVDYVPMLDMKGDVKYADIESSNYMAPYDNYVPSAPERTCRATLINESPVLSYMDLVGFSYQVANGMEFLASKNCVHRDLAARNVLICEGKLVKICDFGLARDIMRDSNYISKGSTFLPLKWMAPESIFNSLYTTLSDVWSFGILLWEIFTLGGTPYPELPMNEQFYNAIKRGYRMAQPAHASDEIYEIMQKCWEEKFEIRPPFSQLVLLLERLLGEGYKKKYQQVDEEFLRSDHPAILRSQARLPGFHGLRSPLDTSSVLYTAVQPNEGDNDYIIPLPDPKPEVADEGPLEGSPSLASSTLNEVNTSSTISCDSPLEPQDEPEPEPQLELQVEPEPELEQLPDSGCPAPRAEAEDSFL
Source text: as §1

[10] = 10 µM, n=1, kinase AAK1, read-out: Percent inhibition AAK1
[11] = 10 µM, n=1, kinase CLK2, read-out: Percent inhibition CLK2
[12] = 10 µM, n=1, kinase CSNK1E, read-out: Percent inhibition CSNK1E
[13] = 10 µM, n=1, kinase EGFR, read-out: Percent inhibition EGFR
[14] = 10 µM, n=1, kinase FLT3, read-out: Percent inhibition FLT3
[15] = 10 µM, n=1, kinase LKB1, read-out: Percent inhibition LKB1
[16] = 10 µM, n=1, kinase LYN, read-out: Percent inhibition LYN
[17] = KINOMEscan, 10 µM, n=1, read-out: Percent inhibition, PDGFRA
[18] = KINOMEscan, 10 µM, n=1, read-out: Percent inhibition, PDGFRB
[19] = 10 μM, n = 1, read-out: percent inhibition FLT3
[20] = 10 μM, n = 1, read-out: percent inhibition PDGFRα

SMILES: CN1CCN(c2ccc(Nc3nccc(-c4cnn5ncccc45)n3)cc2C#N)CC1 [Compound 1]
- inhibition at 10 µM [1, 10]: 99.9%
- inhibition at 10 µM [2, 11]: 100%
- inhibition at 10 µM [3, 12]: 100%
- inhibition at 10 µM [4, 13]: 0%
- inhibition at 10 µM [5, 14]: 100%
- inhibition at 10 µM [6, 15]: 100%
- inhibition at 10 µM [7, 16]: 0%
- inhibition at 10 µM [8, 17]: 100%
- inhibition at 10 µM [9, 18]: 100%

SMILES: COc1ccc(Nc2nccc(-c3cnn4ncccc34)n2)cc1 [Compound 2]
- inhibition at 10 µM [1, 10]: 99.7%
- inhibition at 10 µM [2, 11]: 99.9%
- inhibition at 10 µM [3, 12]: 100%
- inhibition at 10 µM [4, 13]: 0%
- inhibition at 10 µM [5, 14]: 99.3%
- inhibition at 10 µM [6, 15]: 96.1%
- inhibition at 10 µM [7, 16]: 0%
- inhibition at 10 µM [8, 17]: 99.9%
- inhibition at 10 µM [9, 18]: 100%

SMILES: Cc1ccc(O)cc1Nc1ccnc(Nc2cccc(C(N)=O)c2)n1 [Compound 3]
- inhibition at 10 µM [1, 10]: 0%
- inhibition at 10 µM [2, 11]: 91.5%
- inhibition at 10 µM [3, 12]: 100%
- inhibition at 10 µM [4, 13]: 99%
- inhibition at 10 µM [5, 14]: 89%
- inhibition at 10 µM [6, 15]: 74.3%
- inhibition at 10 µM [7, 16]: 99.9%
- inhibition at 10 µM [8, 17]: 99.2%
- inhibition at 10 µM [9, 18]: 100%

SMILES: Cc1ccc(O)cc1N(C)c1ccnc(Nc2cccc(S(N)(=O)=O)c2)n1 [Compound 4]
- inhibition at 10 µM [1, 10]: 0%
- inhibition at 10 µM [2, 11]: 84.5%
- inhibition at 10 µM [3, 12]: 100%
- inhibition at 10 µM [4, 13]: 95.8%
- inhibition at 10 µM [5, 14]: 92.3%
- inhibition at 10 µM [6, 15]: 77.3%
- inhibition at 10 µM [7, 16]: 99.8%
- inhibition at 10 µM [8, 17]: 100%
- inhibition at 10 µM [9, 18]: 100%

SMILES: Fc1cccc(COc2ccc(Nc3ncnc4c3CN(CCN3CCOCC3)CC4)cc2Cl)c1 [Compound 6]
- inhibition at 10 µM [1, 10]: 0%
- inhibition at 10 µM [2, 11]: 0%
- inhibition at 10 µM [3, 12]: 0%
- inhibition at 10 µM ([4]; 10 μM, n = 1, read-out: percent inhibition EGFR): > 99%
- inhibition at 10 µM [4, 13]: 99.9%
- inhibition at 10 µM [5, 14]: 0%
- inhibition at 10 µM [6, 15]: 0%
- inhibition at 10 µM [7, 16]: 0%
- inhibition at 10 µM [8, 17]: 0%
- inhibition at 10 µM [9, 18]: 0%

SMILES: COc1cc(Nc2nccc(-c3sc(N)nc3-c3cccc(NC(=O)c4c(F)cccc4F)c3)n2)cc(OC)c1OC [Compound 7]
- inhibition at 10 µM [1, 10]: 92.8%
- inhibition at 10 µM [2, 11]: 0%
- inhibition at 10 µM [3, 12]: 99.9%
- inhibition at 10 µM [4, 13]: 100%
- inhibition at 10 µM [5, 14]: 99.8%
- inhibition at 10 µM [6, 15]: 0%
- inhibition at 10 µM [7, 16]: 100%
- inhibition at 10 µM [8, 17]: 100%
- inhibition at 10 µM [9, 18]: 100%

SMILES: C[C@@H](Oc1cc(-c2cnc3ccccn23)sc1C(N)=O)c1ccccc1Cl [Compound 8]
- inhibition at 10 µM [1, 10]: 97.5%
- inhibition at 10 µM [2, 11]: 0%
- inhibition at 10 µM [3, 12]: 71.7%
- inhibition at 10 µM [4, 13]: 0%
- inhibition at 10 µM [5, 14]: 98.6%
- inhibition at 10 µM [6, 15]: 98.3%
- inhibition at 10 µM [7, 16]: 0%
- inhibition at 10 µM [8, 17]: 0%
- inhibition at 10 µM [9, 18]: 0%

SMILES: c1ccc(COc2cccc(-c3ccnc4[nH]ccc34)c2)cc1 [Compound 9]
- inhibition at 10 µM ([1]; 10 μM, n = 1, read-out: percent inhibition AAK1): ≥ 90%
- inhibition at 10 µM [1, 10]: 95.1%
- inhibition at 10 µM [2, 11]: 0%
- inhibition at 10 µM [3, 12]: 0%
- inhibition at 10 µM [4, 13]: 0%
- inhibition at 10 µM [5, 19]: ≥ 90%
- inhibition at 10 µM [5, 14]: 91.1%
- inhibition at 10 µM ([6]; 10 μM, n = 1, read-out: percent inhibition LKB1): ≥ 99%
- inhibition at 10 µM [6, 15]: 99.5%
- inhibition at 10 µM [7, 16]: 0%
- inhibition at 10 µM [8, 17]: 0%
- inhibition at 10 µM [9, 18]: 0%

SMILES: Clc1ccc(Nc2ncc(-c3ccccc3)s2)cc1 [Compound 10]
- inhibition at 10 µM [1, 10]: 0%
- inhibition at 10 µM [2, 11]: 0%
- inhibition at 10 µM [3, 12]: 0%
- inhibition at 10 µM [4, 13]: 0%
- inhibition at 10 µM [5, 19]: > 90%
- inhibition at 10 µM [5, 14]: 97.1%
- inhibition at 10 µM [6, 15]: 67.6%
- inhibition at 10 µM ([7]; 10 μM, n = 1, read-out: percent inhibition LYN): > 99%
- inhibition at 10 µM [7, 16]: 100%
- inhibition at 10 µM [8, 20]: > 90%
- inhibition at 10 µM [8, 17]: 98.9%
- inhibition at 10 µM ([9]; 10 μM, n = 1, read-out: percent inhibition PDGFRβ): > 99%
- inhibition at 10 µM [9, 18]: 99.9%

SMILES: Nc1ncc2c(-c3ccncc3)c[nH]c2n1 [Compound 11]
- inhibition at 10 µM [1, 10]: 79.4%
- inhibition at 10 µM ([2]; 10 μM, n = 1, read-out: percent inhibition CLK2): ≥ 99%
- inhibition at 10 µM [2, 11]: 99.9%
- inhibition at 10 µM ([3]; 10 μM, n = 1, read-out: percent inhibition CSNK1E): ≥ 99%
- inhibition at 10 µM [3, 12]: 100%
- inhibition at 10 µM [4, 13]: 0%
- inhibition at 10 µM [5, 14]: 94.5%
- inhibition at 10 µM [6, 15]: 80%
- inhibition at 10 µM [7, 16]: 0%
- inhibition at 10 µM [8, 20]: ≥ 99%
- inhibition at 10 µM [8, 17]: 100%
- inhibition at 10 µM [9, 18]: 93.2%
